Measured values reported in patent publication US5459141A, “Compounds 31668P and 31668U, a process for their production and their use” (Hoechst Aktiengesellschaft, priority 1992, dated 1995).
“Also recorded” adds a separate entry of the source. Where two headings read alike, the source gives them in different places.

Experiments:
[1] = Cytotoxic / cytostatic activity (general statement); details: in words
[2] = test system: Staph. aureus SG 511; assay: Minimal inhibitory concentration, broth-dilution test; assay type: cell-based; details: Staphylococcus aureus, SG511
Description: (§1) The antibacterial activity of 31668P and 31668U as Minimum Inhibitory Concentration values required to inhibit the growth of various bacteria are shown in Table 1.
(§2) Minimal inhibitory concentrations of the anitbiotics 31668P and
(§3) 31668U determined by the broth-dilution tests against selected
(§4) strains of bacteria (microgram per ml)

[3] = test system: Staph. aureus 285; assay: as above; assay type: cell-based; details: Staphylococcus aureus
Description: as §1, §2, §3, §4

[4] = test system: E. coli DC 0; assay: as above; assay type: cell-based; details: Escherichia coli, DC0
Description: as §1, §2, §3, §4

[5] = test system: Staph. aureus 503; assay: as above; assay type: cell-based; details: Staphylococcus aureus
Description: as §1, §2, §3, §4

[6] = test system: Pseud. aeruginosa 1771; assay: as above; assay type: cell-based; details: Pseudomonas aeruginosa
Description: as §1, §2, §3, §4

[7] = test system: Enterobact. cloacae P 99; assay: as above; assay type: cell-based; details: read-out: Minimal inhibitory concentration
Description: as §1, §2, §3, §4

[8] = test system: Strept. faecium D; assay: as above; assay type: cell-based; details: Enterococcus faecium
Description: as §1, §2, §3, §4

[9] = test system: E. coli DC 2; assay: as above; assay type: cell-based; details: Escherichia coli, DC2
Description: as §1, §2, §3, §4

[10] = test system: Saim. typhimurium; assay: as above; assay type: cell-based
Description: as §1, §2, §3, §4

[11] = test system: Strept. pyogenes 77 A; assay: as above; assay type: cell-based; details: Streptococcus pyogenes
Description: as §1, §2, §3, §4

[12] = test system: Klebs. spec. 1522 E; assay: as above; assay type: cell-based; details: read-out: Minimal inhibitory concentration
Description: as §1, §2, §3, §4

[13] = test system: E. coli 078; assay: as above; assay type: cell-based; details: Escherichia coli
Description: as §1, §2, §3, §4

[14] = test system: Pseud. aeruginosa ATCC 9027; assay: as above; assay type: cell-based; details: Pseudomonas aeruginosa, ATCC9027
Description: as §1, §2, §3, §4

[15] = test system: E. coli 1507 E; assay: as above; assay type: cell-based; details: Escherichia coli, read-out: Minimal inhibitory concentration
Description: as §1, §2, §3, §4

[16] = test system: Klebs. spec. 1082E (K-1); assay: as above; assay type: cell-based
Description: as §1, §2, §3, §4

[17] = test system: Strept. pyogenes 308 A; assay: as above; assay type: cell-based; details: Streptococcus pyogenes
Description: as §1, §2, §3, §4

[18] = test system: Pseud. aeruginosa 1771 M; assay: as above; assay type: cell-based; details: Pseudomonas aeruginosa
Description: as §1, §2, §3, §4

[19] = test system: Pseud. aeruginosa 1592 E; assay: as above; assay type: cell-based; details: Pseudomonas aeruginosa
Description: as §1, §2, §3, §4

[20] = test system: E. coli TEM; assay: as above; assay type: cell-based; details: Escherichia coli, read-out: Minimal inhibitory concentration
Description: as §1, §2, §3, §4

[21] = test system: Enterobact. cloacae 1321 E; assay: as above; assay type: cell-based
Description: as §1, §2, §3, §4

[22] = test system: gram-positive and gram-negative bacteria; assay: Antibacterial activity (general statement); assay type: cell-based; details: in words

SMILES: COc1c(C)c(O)c2c(c1O)C(CO)[N+]1=CC3CC4C(C1C2N1CCOC41)N3C (centres unmarked) [Compound 31668P]
- cytotoxic activity / cytostatic effect [1]: cytotoxic activity; also recorded: cytostatic effect
- MIC [2]: < 0.002 µg/mL
- MIC [3]: < 0.002 µg/mL
- MIC [4]: 0.781 µg/mL
- MIC [5]: < 0.002 µg/mL
- MIC [6]: 1.56 µg/mL
- MIC [7]: 0.195 µg/mL
- MIC [8]: 0.025 µg/mL
- MIC [9]: 0.195 µg/mL
- MIC [10]: 0.391 µg/mL
- MIC [11]: < 0.002 µg/mL
- MIC ([12]; Klebs. spec. 1522 E): 0.391 µg/mL
- MIC [13]: 0.049 µg/mL
- MIC [14]: 0.781 µg/mL
- MIC ([15]; 1507E): 0.195 µg/mL
- MIC [16]: 0.391 µg/mL
- MIC [17]: < 0.002 µg/mL
- MIC [18]: 0.391 µg/mL
- MIC [19]: 0.781 µg/mL
- MIC [20]: 0.195 µg/mL
- MIC [21]: 0.098 µg/mL
- antibacterial / antibiotic activity [22]: active against a large number of both gram-positive and gram-negative bacteria; also recorded: have an antibiotic activity

SMILES: COC1=C(C)C(=O)C2=C(C1=O)C(CO)[N+]1=CC3CC4C(C1C2N1CCOC41)N3C (centres unmarked) [Compound 31668U]
- cytotoxic activity / cytostatic effect [1]: cytotoxic activity; also recorded: cytostatic effect
- MIC [2]: < 0.002 µg/mL
- MIC [3]: < 0.002 µg/mL
- MIC [4]: 6.25 µg/mL
- MIC [5]: < 0.002 µg/mL
- MIC [6]: 12.5 µg/mL
- MIC [7]: 1.56 µg/mL
- MIC [8]: 0.195 µg/mL
- MIC [9]: 0.781 µg/mL
- MIC [10]: 3.13 µg/mL
- MIC [11]: < 0.002 µg/mL
- MIC [12]: 1.56 µg/mL
- MIC [13]: 0.195 µg/mL
- MIC [14]: 6.25 µg/mL
- MIC ([15]; E. coli 1507 E): 3.13 µg/mL
- MIC [16]: 0.781 µg/mL
- MIC [17]: < 0.002 µg/mL
- MIC [18]: 1.56 µg/mL
- MIC [19]: 6.25 µg/mL
- MIC [20]: 1.56 µg/mL
- MIC [21]: 0.195 µg/mL
- antibacterial / antibiotic activity [22]: active against a large number of both gram-positive and gram-negative bacteria; also recorded: have an antibiotic activity
